From patent publication EP1222180B1, “ENANTIOMERIC COMPOUNDS FOR TREATMENT OF CARDIAC ARRHYTHMIAS AND METHODS OF USE” (ARYx Therapeutics, priority 1999, dated 2001)

Columns and labels:
[1] = system: anesthetized rats; test: Anti-arrhythmic activity in anesthetized rats (benzene/adrenaline challenge, EKG recording); assay type: in vivo, Male Sprague-Dawley rats; conditions: for protection against tachyarrhythmia (heart rate increase after adrenaline): administered from time 0 to time 120 minutes, Figure 3; for inhibition of the formation of ventricular premature beats (VPB): period of drug administration (time 0 to 120 min); for Heart rate (beats/minute) / Inhibition of VPB / Inhibition of tachycardia / Number of VPB / PR interval / QRS interval / QT interval: isolated enantiomer compared to the racemate, 4 mg/kg i.v. then 12 mg/kg/h for 2 hours; for anti-VPB activity at the end of the washout period: time 180 min
Experimental: Male Sprague-Dawley rats with body weights of 410 ± 30 g (Harlan Sprague Dawley Inc., Indianapolis, IN), were anesthetized with sodium pentobarbital (50 mg/kg i.p. - Butler Co., Columbus, OH). The skin from the neck area was removed and the jugular veins on both sides were cleared of connective tissue. Both jugular veins and the left carotid artery were isolated, and the latter tied up cranially with a surgical silk (ETHICON 4-0, Ethicon Inc., Australia). A plastic catheter ([…] 19ga, Vecton Dickinson, Sandy, UT), filled with a solution containing 10% sodium heparin (Elkins-Sinn Inc., Cherry Hill, NJ) in normal saline (100 U/ml sodium heparin), was introduced into the artery and fixed with surgical silk.
The catheter was connected to a pressure transducer (OHMEDA P23-XL, Ohmeda Medical Devices Division Inc., Madison, WI), filled with the same heparinized 0.9% NaCl solution, to register beat-to-beat arterial pressure. Needle electrodes were inserted s.c., and together with the pressure transducer, were joined to a GOULD TA 2000 recorder. Leads II, aVF and intraarterial blood pressure were monitored simultaneously throughout the experiments and recorded at certain intervals at 50 and 200 mm/sec paper speed.
The surgery was completed with an incision on the trachea where a short plastic tubing was placed and the animal was connected to a rodent-model ventilator (HARVARD Model 683, Harvard Apparatus, Inc., Holliston, MA). The animals were ventilated in a controlled way, depending on their spontaneous breathing frequency (55-75/min).
Drug administrations were carried out through i.v. catheters (TERUMO 24 GA*3/4", Terumo Medical Corp., Elkton, MD) inserted into both jugular veins. The left side was used for drug infusions by means of a syringe pump (SAGE INSTRUMENTS, Model 341B, Orion Res. Inc., Boston, MA), and the right side was used for adrenaline injections. The experiments were started after at least 15 minutes of stabilization. Benzene/adrenaline challenges were performed as follows: the respirator inlet was connected to a 50-ml bubbler half-full with benzene (Fisher Scientific, Fair Lawn, NJ) so that the inspired air was saturated with benzene vapor. The animal was ventilated with benzene vapor for two minutes. The tidal volume was typically 1 ml/100g of animal. During the last 30 seconds of benzene ventilation, 10 µg/kg adrenaline solution (in 0.9% NaCl) was injected into the right jugular vein. […] These arrhythmias could be elicited repeatedly. After three control VTs (at -30, -20 and -10 minutes), the test compounds were injected slowly during 30 seconds at a dose of 4 mg/kg i.v., immediately followed by a slow infusion of 12 mg/kg/h for 2 hours. The flow rate during the infusion period was 1 ml/h.
There were 5 rats per test compound and each animal served as its own control. The ability of the different drugs to suppress arrhythmias was tested against repeated benzene/adrenaline challenges at 5, 15, 30, 45, 60, 90, 120 (end of drug infusion), 135, 150, 165 and 180 minutes after the i.v. bolus injection. The amplitudes of the systolic arterial pressure and diastolic arterial pressure […] with the help of a pressure-amplitude calibration curve. Heart rate, number of ventricular complexes during the occurrence of VTs and VPBs, and certain ECG parameters (PR, QRS, QT durations and RR cycle lengths in msec) were also recorded and measured manually. At each time-point, 3-5 cycles were measured and the average values were entered into EXCEL Windows 97. The average and standard deviation for the five experimental animals per compound were calculated.

[2] = assay type: in vitro ADME; conditions: human; for hydrolysis half-life: plasma
Experimental: Venous blood (60 ml) was collected in heparinized 15-ml Vacutainer® tubes from the forearm of five human volunteers. Each tube contained 1,000 units of heparin sodium salt. The blood was immediately centrifuged at 2,000 g for 10 minutes and the plasma was collected. Immediately after collection, the plasma was divided into 2-ml aliquots in borosilicate glass tubes (5-ml capacity) capped with a plastic stopper. The tubes were then equilibrated in a 37°C-water bath for at least 15 minutes before the test samples were added. Stock solutions were prepared by dissolving 25 µmoles (about 18 mg) of each of the test compounds in 10 ml of deionized water. To each of the glass tubes containing 2 ml of fresh plasma, equilibrated at 37°C, was added 40 µl of the stock solutions (one test compound per tube). The plasma/stock solutions were then mixed. Samples (250 µl) were collected at time 0 (immediately after mixing test compounds in plasma) and then at 30, 60, 90, 120, 180, 240, and 300 minutes. The test tubes were capped, to avoid concentration due to evaporation, and left in the 37°C bath during the entire experiment. […] The tubes were then capped and vortexed, then kept at -20°C until analysis. […] The supernatant was collected for injection in the HPLC system. […] The detection wavelength was set at 242 nm, and the injected volume was 100 µL. The HPLC peaks were recorded, and the integrated values were plotted against time using the SIGMAPLOT software version 4.0 for WINDOWS. The resulting curves were fitted to a first-order exponential decay equation from which hydrolysis half-lives were calculated.

[3] = benzene vapors and adrenaline challenge, Figure 2

SMILES | protection against tachyarrhythmia (heart rate increase after adrenaline) [1] | inhibition of the formation of ventricular premature beats (VPB) [1, 3] | time at which anti-VPB activity is lost [1, 3] | Heart rate (beats/minute) [1] | Inhibition of VPB [1] | Inhibition of tachycardia [1] | Number of VPB [1] | PR interval [1] | QRS interval [1] | QT interval [1] | anti-VPB activity at the end of the washout period [1, 3] | Plasma half-life [2] | hydrolysis half-life [2] | effects on the QT segment of the EKG recording (Class-III properties) ([1]; Figure 4) | effects on the PR segment of the EKG recording (Class-IV activity) ([1]; Figure 6)
CC[C@H](C)OC(=O)Cc1oc2ccccc2c1C(=O)c1cc(I)c(OCCN(CC)CC)c(I)c1 [ATI-2042] | very good protection against this tachyarrhythmia | – | – | – | – | – | – | – | – | – | – | – | – | – | –
CC[C@H](C)OC(=O)Cc1oc2ccccc2c1C(=O)c1cc(I)c(OCCN(CC)CC)c(I)c1 [R,S-2042] | the least potent and shortest acting | even less active than either the R- or the S-isomer | – | – | – | – | – | – | – | – | – | – | – | – | –
CC[C@@H](C)OC(=O)Cc1oc2ccccc2c1C(=O)c1cc(I)c(OCCN(CC)CC)c(I)c1 [R-2042, (R)-sec-Butyl 2-[3-(3,5-diiodo-4-(2-diethylaminoethyloxy)benzoyl)]benzofurane-acetate] | – | – | ~100 min | lower | longer | longer | lower | shorter | no change | no change | completely inactive | 5.0 h | 5 h | – | –
CC[C@H](C)OC(=O)Cc1oc2ccccc2c1C(=O)c1cc(I)c(OCCN(CC)CC)c(I)c1 [S-2042, (S)-sec-Butyl 2-[3-(3,5-diiodo-4-(2-diethylaminoethyloxy)benzoyl)]benzofurane-acetate] | more potent and longer acting then R-2042 | totally inhibited the formation of ventricular premature beats for the whole period of drug administration | – | lower | longer | longer | lower | longer | longer | longer | still retained part of its activity | 7.3 h | 7.3 h | the most potent and the longest acting | much more potent than R-2042 and the racemate R,S-2042
